AUC0-2 and AUC0-24 data for one compound are collected here from patent US20160158184A1, “SELF-EMULSIFYING COMPOSITION OF OMEGA3 FATTY ACID” (priority 2013, published 2016).

The series can be described thus: Pharmacokinetics in beagles (Test Example 5). Format: in vivo. On the set-up: unit not given beside the values. To be noted: male beagles fasted 18 hours or more, oral, 600 mg of EPA-E, plasma EPA, corrected for pre-dose value. The method, then: The composition or the capsule prepared was orally administered to 6 male beagles (at the age of 2 to 6 years with the body weight of 8 to 13 kg, 3 Marshall beagles and 3 Nosan beagles) under fasting conditions, and blood EPA concentration was evaluated. The test animals were fasted 18 hours or more before the administration, and each animal was administered with the composition at an amount corresponding to 600 mg of the EPA-E. Blood was collected before the administration, and 0.5, 1, 1.5, 2, 3, 4, 6, 8, and 24 hours after the administration, and plasma was separated to measure plasma EPA concentration by LC/MS/MS (a method of separating a sample by liquid chromatography and separating the resultant components by mass spectrometry for measurement). The control group was administered with the EPA-E stock solution encapsulated in a capsule. […] In the calculation of each parameter, the value was corrected by subtracting the blood EPA concentration before the administration of the composition.

The compound `CC/C=C\C/C=C\C/C=C\C/C=C\C/C=C\CCCC(=O)OCC` [Comp. Ex. 5, Ethyl eicosapentaenoate ester] yielded an AUC0-2 (0 to 2 hours) of 11.3. In addition, the AUC0-24 (0 to 24 hours) turned out to be 76.6.
